From US8445674B2, “Heterocyclyl compounds” (Hoffmann-La Roche Inc, priority 2009, dated 2013)

What follows are molecules tested against T1, human chemokine receptor 2 isoform B (Homo sapiens, UniProt P41597) (assay: Calcium mobilization assay (FLIPR, antagonist activity against MCP-1)). Conditions: Ca mobilisation assay, CHOK1-CCR2B-A5 cells, inhibition of calcium increase induced by 20 nM MCP-1.
T1 construct: host or cells: CHOK1-CCR2B-A5 cells (CHO-K1)
T1 sequence (P41597 1-360 isoform P41597-2): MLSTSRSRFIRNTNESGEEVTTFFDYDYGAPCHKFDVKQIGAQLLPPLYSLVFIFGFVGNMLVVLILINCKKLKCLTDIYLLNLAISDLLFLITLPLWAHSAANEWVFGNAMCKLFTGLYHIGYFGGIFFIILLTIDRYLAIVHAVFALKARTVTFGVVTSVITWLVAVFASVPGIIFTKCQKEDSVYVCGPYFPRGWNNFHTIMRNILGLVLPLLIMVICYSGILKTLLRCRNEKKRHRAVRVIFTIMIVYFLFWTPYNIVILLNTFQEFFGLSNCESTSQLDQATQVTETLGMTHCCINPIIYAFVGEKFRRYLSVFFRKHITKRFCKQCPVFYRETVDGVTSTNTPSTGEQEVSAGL
Type: cell-based
Experimental: Calcium Mobilization Assay
CHOK1-CCR2B-A5 cells (from Euroscreen) stably overexpressing the human chemokine receptor 2 isoform B were cultured in Nutrient Hams F12 medium supplemented with 5% FBS, 100 U/ml penicillin, 100 μg/ml streptomycin, 400 μg/ml G418 and 5 μg/ml puromycin.
For the assay cells were grown overnight in 384-well black clear flat bottom polystyrene plates (Costar) at 37° C. at 5% CO2. After washing with DMEM, 20 mM Hepes, 2.5 mM probenecid, 0.1% BSA (DMEM assay buffer) cells were loaded with 4 μM Fluo-4 in the same DMEM assay buffer for 2 hours at 30° C. Excess dye was removed and cells were washed with DMEM assay buffer. 384-well compound plates were prepared with DMEM assay buffer/0.5% DMSO with or without various concentrations of test compounds. Usually compounds were tested for agonist and antagonist activity.
Test compounds were added to the assay plate and agonist activity was monitored as fluorescence for 80 seconds with a FLIPR (488 nm excitation; 510-570 nm emission; Molecular Devices). After 20-30 min. of incubation at 30° C., 20 nM MCP-1 (R&D; Roche) was added and fluorescence was monitored again for 80 seconds. Increases in intracellular calcium are reported as maximum fluorescence after agonist exposure minus basal fluorescence before exposure. Antagonist activity is indicated as inhibitor concentration required for 50% inhibition of specific calcium increases.

| IC50 [nM] | SMILES |
| --- | --- |
| 11 | C[C@H]1C(=O)N(CCCC(=O)N2CCC3(CC3)[C@H](O)C2)C(C(N)=O)CN1C(=O)Nc1ccc(Cl)c(Cl)c1 (stereo partly drawn) [Example 121, (3RS,6S)-4-[4-((S)-4-Hydroxy-6-aza-spiro[2.5]oct-6-yl)-4-oxo-butyl]-6-methyl-5-oxo-piperazine-1,3-dicarboxylic acid 3-amide 1-[(3,4-dichloro-phenyl)-amide]] |
| 54.9 | C[C@H]1C(=O)N(CCCC(=O)N2CCC3(CC3)[C@H](O)C2)CCN1C(=O)Nc1cccc(C(F)(F)F)c1 [Example 28, (S)-4-[4-((S)-4-Hydroxy-6-aza-spiro[2.5]oct-6-yl)-4-oxo-butyl]-2-methyl-3-oxo-piperazine-1-carboxylic acid (3-trifluoromethyl-phenyl)-amide] |
| 188 | C[C@H]1C(=O)N(CC[C@H](O)C(=O)N2CCC3(CC3)[C@H](O)C2)CCN1C(=O)Nc1ccc(C(F)(F)F)c(Cl)c1 [Example 134, (S)-4-[(S)-3-Hydroxy-4-((S)-4-hydroxy-6-aza-spiro[2.5]oct-6-yl)-4-oxo-butyl]-2-methyl-3-oxo-piperazine-1-carboxylic acid (3-chloro-4-trifluoromethyl-phenyl)-amide] |
| 1800 | NC(=O)C1CCN(C(=O)CCN2CCN(C(=O)/C=C/c3ccc(Cl)c(Cl)c3)CCC2=O)CC1 [Example 94, 1-(3-{4-[(E)-3-(3,4-Dichloro-phenyl)-acryloyl]-7-oxo-[1,4]diazepan-1-yl}-propionyl)-piperidine-4-carboxylic acid amide] |
| 41.7 | C[C@H]1C(=O)N(CCCC(=O)N2CCC3(CC3)[C@H](O)C2)CCN1c1ccc(Cl)c(OC(F)(F)F)c1 [Example 62, (S)-4-(4-chloro-3-trifluoromethoxy-phenyl)-1-[4-((S)-4-hydroxy-6-aza-spiro[2.5]oct-6-yl)-4-oxo-butyl]-3-methyl-piperazin-2-one] |
| 453 | COC(=O)C(CC(=O)N1CCC2(CC2)[C@H](O)C1)N1CCN(C(=O)/C=C/c2ccc(Cl)c(Cl)c2)CCC1=O (stereo partly drawn) [Example 7, (R,S)-2-{4-[(E)-3-(3,4-Dichloro-phenyl)-acryloyl]-7-oxo-[1,4]diazepan-1-yl}-4-((S)-4-hydroxy-6-aza-spiro[2.5]oct-6-yl)-4-oxo-butyric acid methyl ester] |
| 4.6 | C[C@@H]1CN([C@H](CO)CCC(=O)N2CCC3(CC3)[C@H](O)C2)C(=O)CCN1c1ccc(C(F)(F)F)c(C(F)(F)F)c1 [Example 128, (R)-1-(3,4-bis-trifluoromethyl-phenyl)-4-[(S)-4-((S)-4-hydroxy-6-aza-spiro[2.5]oct-6-yl)-1-hydroxymethyl-4-oxo-butyl]-2-methyl-[1,4]diazepan-5-one] |
| 1970 | O=C(/C=C/c1ccc(Cl)c(Cl)c1)N1CCC(=O)N(CCC(=O)N2CC[C@H](O)[C@H](O)C2)CC1 (racemic) [Example 2, 1-[(E)-3-(3,4-Dichloro-phenyl)-acryloyl]-4-[3-((3RS,4SR)-3,4-dihydroxy-piperidin-1-yl)-3-oxo-propyl]-[1,4]diazepan-5-one] |
| 157 | C[C@H]1C(=O)N([C@@H](CO)CCC(=O)N2CCC3(CC3)[C@H](O)C2)CCN1C(=O)Nc1ccc(C(F)(F)F)c(Cl)c1 [Example 146, (S)-4-[(R)-4-((S)-4-Hydroxy-6-aza-spiro[2.5]oct-6-yl)-1-hydroxymethyl-4-oxo-butyl]-2-methyl-3-oxo-piperazine-1-carboxylic acid (3-chloro-4-trifluoromethyl-phenyl)-amide] |
| 2350 | COC(=O)C(CC(=O)N1C[C@@H](C)C[C@H](O)C1)N1CCN(C(=O)/C=C/c2ccc(Cl)c(Cl)c2)CCC1=O (stereo partly drawn) [Example 9, (R,S)-2-{4-[(E)-3-(3,4-Dichloro-phenyl)-acryloyl]-7-oxo-[1,4]diazepan-1-yl}-4-((3S,5S)-3-hydroxy-5-methyl-piperidin-1-yl)-4-oxo-butyric acid methyl ester] |
| 1300 | O=C(/C=C/c1ccc(Cl)c(Cl)c1)N1CCC(=O)N(CCC(=O)N2CCCC(O)C2)CC1 (racemic) [Example 70, (rac)-1-[(E)-3-(3,4-Dichloro-phenyl)-acryloyl]-4-[3-(3-hydroxy-piperidin-1-yl)-3-oxo-propyl]-[1,4]diazepan-5-one] |
| 3830 | C[C@H]1C[C@H](O)CN(C(=O)CCN2CCN(C(=O)Nc3ccc(Cl)c(Cl)c3)[C@@H](C)C2=O)C1 [Example 19, (S)-4-[3-((3S,5S)-3-Hydroxy-5-methyl-piperidin-1-yl)-3-oxo-propyl]-2-methyl-3-oxo-piperazine-1-carboxylic acid (3,4-dichloro-phenyl)-amide] |
| 18 | C[C@@H]1C(=O)N(CCCC(=O)N2CCC3(CC3)[C@H](O)C2)[C@@H](C(N)=O)CN1C(=O)Nc1ccc(C(F)(F)F)c(Cl)c1 [Example 150, (3R,6R)-4-[4-((S)-4-Hydroxy-6-aza-spiro[2.5]oct-6-yl)-4-oxo-butyl]-6-methyl-5-oxo-piperazine-1,3-dicarboxylic acid 3-amide 1-[(3-chloro-4-trifluoromethyl-phenyl)-amide]] |
| 85 | C[C@H]1C(=O)N(CCCC(=O)N2CCC3(CC3)[C@H](O)C2)CCN1C(=O)Nc1ccc(Cl)cc1 [Example 27, (S)-4-[4-((S)-4-Hydroxy-6-aza-spiro[2.5]oct-6-yl)-4-oxo-butyl]-2-methyl-3-oxo-piperazine-1-carboxylic acid (4-chloro-phenyl)-amide] |
| 20.6 | C[C@H]1C(=O)N(CCCC(=O)N2CCC3(CC3)[C@H](O)C2)CCN1C(=O)Nc1ccc(C(F)(F)F)cc1 [Example 29, (S)-4-[4-((S)-4-Hydroxy-6-aza-spiro[2.5]oct-6-yl)-4-oxo-butyl]-2-methyl-3-oxo-piperazine-1-carboxylic acid (4-trifluoromethyl-phenyl)-amide] |
| 2480 | C[C@@H]1CN(CCC(=O)N2CCCCC2)C(=O)CCN1C(=O)/C=C/c1cccc(Cl)c1 [Example 101, (R)-1-[(E)-3-(3-Chloro-phenyl)-acryloyl]-2-methyl-4-(3-oxo-3-piperidin-1-yl-propyl)-[1,4]diazepan-5-one] |
| 2670 | C[C@@H]1CN(CCCC(=O)N2CCC3(CC3)[C@H](O)C2)C(=O)CCN1c1ccc(Cl)c(C(F)(F)F)c1 [Example 126, (R)-1-(4-Chloro-3-trifluoromethyl-phenyl)-4-[4-((S)-4-hydroxy-6-aza-spiro[2.5]oct-6-yl)-4-oxo-butyl]-2-methyl-[1,4]diazepan-5-one] |
| 2.4 | C[C@H]1C(=O)N(C[C@@H](O)CC(=O)N2CCC3(CC3)[C@H](O)C2)CCN1C(=O)Nc1ccc(C(F)(F)F)c(C(F)(F)F)c1 [Example 48, (S)-4-[(S)-2-Hydroxy-4-((S)-4-hydroxy-6-aza-spiro[2.5]oct-6-yl)-4-oxo-butyl]-2-methyl-3-oxo-piperazine-1-carboxylic acid (3,4-bis-trifluoromethyl-phenyl)-amide] |
| 1520 | CC1CCN(C(=O)CCN2CCN(C(=O)/C=C/c3ccc(Cl)c(Cl)c3)CCC2=O)CC1 [Example 85, 1-[(E)-3-(3,4-Dichloro-phenyl)-acryloyl]-4-[3-(4-methyl-piperidin-1-yl)-3-oxo-propyl]-[1,4]diazepan-5-one] |
| 3410 | C[C@H]1C(=O)N(CCCC(=O)N2CCC(C)(O)CC2)CCN1C(=O)Nc1cccc(Cl)c1 [Example 105, (S)-4-[4-(4-Hydroxy-4-methyl-piperidin-1-yl)-4-oxo-butyl]-2-methyl-3-oxo-piperazine-1-carboxylic acid (3-chloro-phenyl)-amide] |
